Columns and labels:
[1] = Confirmation of photobase generation: pH of aqueous solution before and after 365-nm irradiation; type: physicochemical; details: 1.00 g/L aqueous solution
Procedure: An aqueous solution having a concentration of 1.00 g/L was prepared from the aminimide compound A and pure water, and 50 ml of this was put into a transparent glass-made sample bottle having an inner diameter of 38 mm and a height of 58 mm, and with stirring with a stirrer while sealed up, the pH of the aqueous solution was measured with a pH meter, Horiba Seisakusho's D54. Further kept sealed up, the sample bottle was irradiated with 365-nm active energy rays on the side thereof at a lighting intensity of 100 mW/cm^2, using a spot UV irradiator, Hamamatsu Photonics' LC8, and the pH of the solution was measured after irradiation for specified seconds. The pH before irradiation with active energy rays was 6.28; and the pH after irradiation with active energy rays for 20 seconds was 9.78; the pH after irradiation for 30 seconds was 9.90; and the pH after irradiation for 50 seconds was 10.01.

SMILES	pH before irradiation with active energy rays [1]	pH after irradiation with active energy rays for 20 seconds ([1]; 365 nm, 100 mW/cm^2, 20 seconds)	pH after irradiation for 30 seconds ([1]; 365 nm, 100 mW/cm^2, 30 seconds)	pH after irradiation for 50 seconds ([1]; 365 nm, 100 mW/cm^2, 50 seconds)	melting point
CC(O)C[N+](C)(C)[N-]C(=O)C(=O)c1ccccc1 (stereo not drawn) [Aminimide Compound A]	6.28	9.78	9.90	10.01	
CC(=O)OC(C)C[N+](C)(C)[N-]C(=O)C(=O)c1ccccc1 (stereo not drawn) [Aminimide Compound D]					100 to 101 °C (dec.)
COc1ccc(C(=O)C(=O)[N-][N+](C)(C)CC(C)O)cc1 (stereo not drawn) [Aminimide Compound B]					102 to 103 °C (dec.)
